{
  "source": "patent US20240374692A1",
  "about": "“A NOVEL ACYLATED INSULIN ANALOG” (SUNSHINE LAKE PHARMA CO., LTD., priority 2021, published 2024)",
  "key": {"[1]": {"conditions": "rat, in vivo, iv, 10 nmol/kg"}, "[2]": {"tested_on": "STZ-induced type I diabetes mellitus (T1DM) C57BL/6 mice", "test": "Hypoglycemic effect, repeated administration (four times) to STZ-induced T1DM C57BL/6 mice (Example 5)", "format": "in vivo", "design": "key to random blood glucose: random blood glucose in mmol/L, Mean±SEM", "procedure": "SPF grade C57BL/6 mice were reared in a suitable rearing box in a barrier environment, with a rearing temperature of 20-26° C., a humidity of 40-70%, a time between day and night of 12 h/12 h, and the mice had free access to standard food and autoclaved sterilization water. After a 3-day quarantine period and a 2-day acclimation period, the mice were fasted for 12 h, and the mice were injected intraperitoneally with streptozotocin solution (STZ, 13 mg/mL, in citrate buffer) or citrate buffer at 130 mg/kg (control group). 3 Days and 7 days after administration of streptozotocin, random blood glucose and fasting blood glucose were detected, and the random blood glucose value above 25 mmol/L and fasting blood glucose value above 11.1 mmol/L were selected as T1DM model mice for follow-up experiments. On the day before administration, random blood glucose was monitored and mice were weighed. Mice were divided into 4 groups according to random blood glucose and body weight.\nSubcutaneous administration (S.C.) was used to administer the corresponding vehicle or drug, once every 4-5 days, for a total of 4 administrations. During the experiment, the animals were allowed to eat and drink water freely. The random blood glucose before the first administration, and 0.25, 0.5, 1, 2, 4, 6, 8, 10, 24, 48, 72, and 96 h after administration were assessed, as well as the random blood glucose before the second, third and fourth administration, and 1, 2, 4, 6, 8, 24, 48, 72, 96 and 120 h after administration.\n(§1) All raw data were entered into Excel files and expressed as Mean±SEM. Statistical analysis of data was performed using Graphpad Prism 7.0 software, one-way or two-way ANOVA comparison method, and P<0.05 was used as the criterion for significant differences."}, "normal C57BL/6 mice": {"tested_on": "normal C57BL/6 mice", "test": "Hypoglycemic effect, single subcutaneous administration to normal C57BL/6 mice", "format": "in vivo", "design": "blood glucose: unit not given here", "conditions": "for blood glucose: Mean ± SEM, n = 6", "procedure": "SPF grade C57BL/6 mice were reared in a suitable rearing box in a barrier environment, with a rearing temperature of 20-26° C., a humidity of 40-70%, a time between day and night of 12 h/12 h, and the mice had free access to standard food and autoclaved sterilization water. After a 3-day quarantine period and a 2-day acclimation period, random blood glucose was measured and mice were weighed. Mice were divided into 6 groups according to random blood glucose and body weight.\nSingle subcutaneous administration (S.C.) was used to administer the corresponding vehicle or drug. The control group was administered the vehicle PBS without fasting during the whole process, and the animals were allowed to eat and drink freely. Random blood glucose values of C57 mice were measured before administration and at 0.25, 0.5, 1, 2, 4, 6, 8, 10, 24, 48, 54, 72 and 96 hours after administration.\nas §1"}, "[3]": {"tested_on": "STZ-induced type I diabetes mellitus (T1DM) C57BL/6 mice", "test": "Hypoglycemic effect, repeated administration (three times) to STZ-induced T1DM C57BL/6 mice (Example 6)", "format": "in vivo", "design": "key to random blood glucose: blood glucose in mmol/L", "conditions": "for random blood glucose: 500 nmol/Kg S.C. three times, Mean ± SEM, n = 7", "procedure": "SPF grade C57BL/6 mice were reared in a suitable rearing box in a barrier environment, with a rearing temperature of 20-26° C., a humidity of 40-70%, a time between day and night of 12 h/12 h, and the mice had free access to standard food and autoclaved sterilization water. After the 3-day quarantine period and the 2-day acclimation period, the mice were fasted for 12 h, and the mice were injected intraperitoneally with streptozotocin solution (STZ, 13 mg/mL, in citrate buffer) at 130 mg/kg. 3 Days and 7 days after administration of streptozotocin, random blood glucose and fasting blood glucose were detected, and the random blood glucose value above 25 mmol/L and fasting blood glucose value above 11.1 mmol/L were selected as T1DM model mice for follow-up experiments. On the day before administration, random blood glucose was monitored and mice were weighed. Mice were divided into 6 groups according to random blood glucose and body weight.\nSubcutaneous administration (S.C.) was used to administer the corresponding vehicle or drug, once every 4-5 days, for a total of 3 administrations. During the experiment, the animals were allowed to eat and drink water freely. The random blood glucose before the first administration, and 0.25, 0.5, 1, 2, 4, 6, 8, 10, 24, 48, 72, and 96 h after administration were assessed, as well as the random blood glucose before the second and third administration, and 0.5, 1, 2, 6, 24, 48, 72, 96 and 120 h after administration.\nas §1"}, "[4]": {"conditions": "single S.C., Degludec 200 nmol/Kg, others 1400 nmol/Kg"}},
  "data": [
    {"substance": "A14E, B16E, B25H, B29K(N(ε)-COOH(CH2)18CO-L-Lys-CO(CH2)2CO—(OEG)2), desB30 human insulin analog [Insulin-a3]", "values": [
      {"measurement": "AUClast", "setting": "[1]", "result": 9170, "unit": "ng·h/mL"},
      {"measurement": "T1/2", "setting": "[1]", "result": "11.2 ± 1.9", "unit": "h"},
      {"measurement": "glucose control effect and effective glucose control time compared with Insulin-a1", "setting": "[2]; 1400 nmol/Kg S.C. four times", "result": "significantly better"},
      {"measurement": "time after administration at which blood glucose reached the lowest level", "setting": "[2]; 1400 nmol/Kg S.C., Insulin-a1 each administration, Insulin-a3 first and second administrations", "result": 24, "unit": "h"},
      {"measurement": "time after administration at which blood glucose reached the normal level", "setting": "[2]; 1400 nmol/Kg S.C., after the first and second administrations", "result": 96, "unit": "h"},
      {"measurement": "time after administration at which blood glucose reached the normal level", "setting": "[2]; 1400 nmol/Kg S.C., after the third and fourth administrations", "result": 120, "unit": "h"},
      {"measurement": "random blood glucose", "setting": "[2]; Day 0 (1st administration), 1400 nmol/Kg S.C. four times", "result": "31.3 ± 3.1"},
      {"measurement": "random blood glucose", "setting": "[2]; Day 1, 1400 nmol/Kg S.C. four times", "result": "17.4 ± 6.7"},
      {"measurement": "random blood glucose", "setting": "[2]; Day 4 (2nd administration), 1400 nmol/Kg S.C. four times", "result": "26.9 ± 8.0"},
      {"measurement": "random blood glucose", "setting": "[2]; Day 5, 1400 nmol/Kg S.C. four times", "result": "7.1 ± 3.8"},
      {"measurement": "random blood glucose", "setting": "[2]; Day 9 (3rd administration), 1400 nmol/Kg S.C. four times", "result": "26.2 ± 7.9"},
      {"measurement": "random blood glucose", "setting": "[2]; Day 10, 1400 nmol/Kg S.C. four times", "result": "8.6 ± 5.7"},
      {"measurement": "random blood glucose", "setting": "[2]; Day 14 (4th administration), 1400 nmol/Kg S.C. four times", "result": "24.4 ± 5.7"},
      {"measurement": "random blood glucose", "setting": "[2]; Day 18, 1400 nmol/Kg S.C. four times", "result": "19.7 ± 6.4"},
      {"measurement": "time the effective glucose control effect can be maintained", "setting": "[2]; repeated administration, C57BL6 mice modeled by STZ", "result": "4-5 days/time"},
      {"measurement": "blood glucose", "setting": "normal C57BL/6 mice; 0 h (before administration), single S.C., Degludec 200 nmol/Kg, others 1400 nmol/Kg", "result": "8.0 ± 1.0"},
      {"measurement": "blood glucose", "setting": "normal C57BL/6 mice; 0.25 h after single S.C., Degludec 200 nmol/Kg, others 1400 nmol/Kg", "result": "8.6 ± 1.0"},
      {"measurement": "blood glucose", "setting": "normal C57BL/6 mice; 0.5 h after single S.C., Degludec 200 nmol/Kg, others 1400 nmol/Kg", "result": "6.2 ± 0.4"},
      {"measurement": "blood glucose compared with the control group", "setting": "normal C57BL/6 mice; 1 h after single S.C. administration", "result": "decreased significantly"},
      {"measurement": "blood glucose", "setting": "normal C57BL/6 mice; 1 h after single S.C., Degludec 200 nmol/Kg, others 1400 nmol/Kg", "result": "4.9 ± 0.8"},
      {"measurement": "blood glucose", "setting": "normal C57BL/6 mice; 2 h after single S.C., Degludec 200 nmol/Kg, others 1400 nmol/Kg", "result": "4.5 ± 1.0"},
      {"measurement": "blood glucose", "setting": "normal C57BL/6 mice; 4 h after single S.C., Degludec 200 nmol/Kg, others 1400 nmol/Kg", "result": "3.9 ± 0.7"},
      {"measurement": "blood glucose", "setting": "normal C57BL/6 mice; 6 h after single S.C., Degludec 200 nmol/Kg, others 1400 nmol/Kg", "result": "3.7 ± 0.5"},
      {"measurement": "blood glucose", "setting": "normal C57BL/6 mice; 8 h after single S.C., Degludec 200 nmol/Kg, others 1400 nmol/Kg", "result": "3.8 ± 0.5"},
      {"measurement": "blood glucose", "setting": "normal C57BL/6 mice; 10 h after single S.C., Degludec 200 nmol/Kg, others 1400 nmol/Kg", "result": "3.5 ± 0.7"},
      {"measurement": "blood glucose", "setting": "normal C57BL/6 mice; 24 h after single S.C., Degludec 200 nmol/Kg, others 1400 nmol/Kg", "result": "2.9 ± 1.0"},
      {"measurement": "blood glucose", "setting": "normal C57BL/6 mice; 48 h after single S.C., Degludec 200 nmol/Kg, others 1400 nmol/Kg", "result": "4.2 ± 2.0"},
      {"measurement": "blood glucose", "setting": "normal C57BL/6 mice; 72 h after single S.C., Degludec 200 nmol/Kg, others 1400 nmol/Kg", "result": "5.4 ± 2.6"},
      {"measurement": "blood glucose", "setting": "normal C57BL/6 mice; 96 h after single S.C., Degludec 200 nmol/Kg, others 1400 nmol/Kg", "result": "8.8 ± 1.1"},
      {"measurement": "effect on blood glucose control compared with Icodec", "setting": "normal C57BL/6 mice; single S.C. 1400 nmol/Kg", "result": "slightly worse"},
      {"measurement": "effective blood glucose control time", "setting": "normal C57BL/6 mice; [4]", "result": 96, "unit": "h"},
      {"measurement": "time after administration at which blood glucose reached the lowest level", "setting": "normal C57BL/6 mice; [4]", "result": 24, "unit": "h"},
      {"measurement": "effective glucose control time", "setting": "[3]; 500 nmol/Kg S.C.", "result": "96 to 120", "unit": "h"},
      {"measurement": "random blood glucose", "setting": "[3]; Day 0 (1st)", "result": "31.8 ± 3.2"},
      {"measurement": "random blood glucose", "setting": "[3]; Day 1", "result": "20.7 ± 5.2"},
      {"measurement": "random blood glucose", "setting": "[3]; Day 4 (2nd)", "result": "29.7 ± 3.7"},
      {"measurement": "random blood glucose", "setting": "[3]; Day 5", "result": "20.1 ± 5.4"},
      {"measurement": "random blood glucose", "setting": "[3]; Day 9 (3rd)", "result": "27.7 ± 6.2"},
      {"measurement": "random blood glucose", "setting": "[3]; Day 10", "result": "16.0 ± 9.4"},
      {"measurement": "random blood glucose", "setting": "[3]; Day 14", "result": "27.4 ± 6.3"},
      {"measurement": "time after administration at which blood glucose returned to normal level", "setting": "[3]; 500 nmol/Kg S.C., after the first and second administrations", "result": 96, "unit": "h"},
      {"measurement": "time after administration at which blood glucose returned to normal level", "setting": "[3]; 500 nmol/Kg S.C., after the third administration", "result": 120, "unit": "h"},
      {"measurement": "time after each administration at which blood glucose reached the lowest level", "setting": "[3]; Icodec 250, 500 and 1000 nmol/kg, Insulin-a3 and Insulin-a10 500 nmol/Kg", "result": 24, "unit": "h"},
      {"measurement": "glucose control effect compared with the Icodec-500 nmol/kg group", "setting": "[3]; test drug 500 nmol/Kg S.C.", "result": "better"},
      {"measurement": "glucose control effect compared with the Icodec-1000 nmol/kg group", "setting": "[3]; test drug 500 nmol/Kg S.C.", "result": "slightly worse"}
    ]}
  ]
}
